Reference: ChEMBL document CHEMBL1128064, “Discovery of L-740,515, a potent thienopyridine cysLT1 receptor (LTD4 receptor) antagonist” (Bioorg Med Chem Lett, 1995)
pIC50: −log10 of the molar value.

Key:
[1] = biological target: Cysteinyl leukotriene receptor 1 (Cavia porcellus); experiment: Inhibition of binding of [3H]LTD4 to guinea pig lung membrane
[2] = Clearance was estimated in two squirrel monkeys after iv administration at 5 mg/kg; format: ADME, organism-based; parameters: dose 5 mg/kg, route intravenous; details: in vivo
[3] = Bioavailability in squirrel monkey (dose 5 mg/kg); format: ADME, organism-based, Saimiri sciureus; details: in vivo
[4] = biological target: T1, Cysteinyl leukotriene receptor 1 (Homo sapiens, UniProt Q9Y271); experiment: Inhibition of binding of [ H]-LTD4 to DMSO differentiated U937 cell membranes; parameters: species or system U-937
T1 sequence (Q9Y271 whole entry): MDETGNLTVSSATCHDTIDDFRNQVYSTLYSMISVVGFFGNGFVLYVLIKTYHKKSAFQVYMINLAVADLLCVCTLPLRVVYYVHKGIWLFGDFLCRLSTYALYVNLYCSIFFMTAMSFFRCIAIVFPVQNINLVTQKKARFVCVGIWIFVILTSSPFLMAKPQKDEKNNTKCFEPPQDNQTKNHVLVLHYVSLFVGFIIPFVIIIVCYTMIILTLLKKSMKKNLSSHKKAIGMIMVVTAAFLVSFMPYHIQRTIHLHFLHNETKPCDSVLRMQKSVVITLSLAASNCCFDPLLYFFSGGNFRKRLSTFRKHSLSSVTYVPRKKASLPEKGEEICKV

[5] = biological target: Cysteinyl leukotriene receptor 1 (Cavia porcellus); experiment: Inhibition of binding of [3H]LTD4 to guinea pig lung membrane supplemented with 0.05% human serum albumin(HSA)
[6] = Terminal half life of the compound.; format: ADME
[7] = Compound was tested on dU937 cell membranes using LTC4 binding assays; format: functional, Homo sapiens
[8] = Compound was tested on PMN membranes using LTD4 binding assays; format: functional, Homo sapiens

O=C(O)CC1(CS[C@H](CCc2ccccc2C(O)(C(F)(F)F)C(F)(F)F)c2cccc(/C=C/c3ccc4sc(Cl)c(Cl)c4n3)c2)CC1
IC50 [1]: 4.12 nM | clearance [2]: 0.9 mL/min/kg | bioavailability [3]: 2% | pIC50 [4]: 8.19 | IC50 [5]: 1.21 nM | half-life [6]: 11 h

CC(C)(O)c1ccc(CC[C@@H](SCC2(CC(=O)O)CC2)c2cccc(/C=C/c3ccc4sc(Cl)c(Cl)c4n3)c2)cc1
IC50 [1]: 0.56 nM | clearance [2]: 6.6 mL/min/kg | bioavailability [3]: 35% | pIC50 [4]: 9.42 | IC50 [5]: 0.2 nM

O=C(O)CC1(CS[C@H](CCc2cccc(C3(O)CCC3)c2)c2cccc(/C=C/c3ccc4sc(Cl)c(Cl)c4n3)c2)CC1
IC50 [1]: 0.44 nM | clearance [2]: 2.6 mL/min/kg | bioavailability [3]: 13% | pIC50 [4]: 9.33 | IC50 [5]: 0.24 nM

CC(C)(O)c1ccccc1CC[C@@H](SCC1(CC(=O)O)CC1)c1cccc(COc2ccc3sc(Cl)c(Cl)c3n2)c1
IC50 [1]: > 150 nM | pIC50 [4]: < 6.82 | IC50 [5]: > 150 nM

CC(C)(O)c1ccccc1CC[C@@H](SCC1(CC(=O)O)CC1)c1cccc(/C=C/c2ccc3sc(F)c(F)c3n2)c1
clearance [2]: 1.61 mL/min/kg | bioavailability [3]: 25% | half-life [6]: 2.5 h

CC(C)(O)c1ccccc1CC[C@@H](SCC1(CC(=O)O)CC1)c1cccc(/C=C/c2ccc3sc(Cl)cc3n2)c1
clearance [2]: 1.2 mL/min/kg | bioavailability [3]: 31%

O=C(O)CC1(CS[C@H](CCc2ccccc2C2(O)CCC2)c2cccc(/C=C/c3ccc4sc(Cl)c(Cl)c4n3)c2)CC1
IC50 [1]: 0.74 nM | clearance [2]: 1 mL/min/kg | bioavailability [3]: 22% | pIC50 [4]: 8.98 | IC50 [5]: 0.34 nM

O=C(O)CC1(CS[C@H](CCc2ccc(C3(O)CCC3)cc2)c2cccc(/C=C/c3ccc4sc(Cl)c(Cl)c4n3)c2)CC1
IC50 [1]: 0.58 nM | clearance [2]: 4.7 mL/min/kg | bioavailability [3]: 15% | pIC50 [4]: 9.19 | IC50 [5]: 0.29 nM | half-life [6]: 2 h

O=C(O)CC1(CS[C@H](CCc2ccc(Br)cc2)c2cccc(/C=C/c3ccc4sc(Cl)c(Cl)c4n3)c2)CC1
IC50 [1]: 1.95 nM | clearance [2]: 1.6 mL/min/kg | bioavailability [3]: 3% | pIC50 [4]: 8.33 | IC50 [5]: 1.03 nM | half-life [6]: 5.1 h

CC(C)(O)c1ccccc1CC[C@@H](SCC1(CC(=O)O)CC1)c1cccc(C2CC2c2ccc3sc(Cl)c(Cl)c3n2)c1 (some centres not stated)
IC50 [1]: 10.9 nM | pIC50 [4]: 7.80 | IC50 [5]: 9.12 nM

CC(C)(O)c1ccccc1CC[C@@H](SCC1(CC(=O)O)CC1)c1cccc(/C=C/c2ccc3scc(Cl)c3n2)c1
IC50 [1]: 0.54 nM | clearance [2]: 0.39 mL/min/kg | bioavailability [3]: 13% | pIC50 [4]: 8.72 | IC50 [5]: 1.58 nM

O=C(O)CC1(CS[C@H](CCc2ccc(C(F)(F)F)cc2)c2cccc(/C=C/c3ccc4sc(Cl)c(Cl)c4n3)c2)CC1
IC50 [1]: 3.84 nM | clearance [2]: 1.4 mL/min/kg | bioavailability [3]: 4% | pIC50 [4]: 8.06 | IC50 [5]: 1.43 nM

O=C(O)CC1(CS[C@H](CCc2ccccc2Br)c2cccc(/C=C/c3ccc4sc(Cl)c(Cl)c4n3)c2)CC1
IC50 [1]: 2.6 nM | clearance [2]: 0.46 mL/min/kg | bioavailability [3]: 3% | pIC50 [4]: 8.61 | IC50 [5]: 1.93 nM | half-life [6]: 8.8 h

CC(C)(O)c1ccccc1CC[C@@H](SCC1(CC(=O)O)CC1)c1cccc(OCc2ccc3sc(Cl)c(Cl)c3n2)c1
IC50 [1]: 0.42 nM | pIC50 [4]: 8.70 | IC50 [5]: 2.2 nM

O=C(O)CC1(CS[C@H](CCc2ccccc2CO)c2cccc(/C=C/c3ccc4sc(Cl)c(Cl)c4n3)c2)CC1
IC50 [1]: 0.48 nM | clearance [2]: 3.5 mL/min/kg | pIC50 [4]: 9.14 | IC50 [5]: 0.48 nM

CC(C)(O)c1ccccc1CC[C@@H](SCC1(CC(=O)O)CC1)c1cccc(/C=C/c2ccc3sccc3n2)c1
IC50 [1]: 1.31 nM | pIC50 [4]: 8.07 | IC50 [5]: 20.4 nM

O=C(O)CC1(CS[C@H](CCc2ccccc2)c2cccc(/C=C/c3ccc4sc(Cl)c(Cl)c4n3)c2)CC1
IC50 [1]: 0.34 nM | clearance [2]: 1.8 mL/min/kg | bioavailability [3]: 13% | pIC50 [4]: 8.79 | IC50 [5]: 0.37 nM | half-life [6]: 4 h

CC(C)(O)c1ccccc1CC[C@@H](SCC1(CC(=O)O)CC1)c1cccc(/C=C/c2ccc3sc(Cl)c(Cl)c3n2)c1
IC50 [1]: 0.89 nM | clearance [2]: 0.57 mL/min/kg | bioavailability [3]: 29% | pIC50 [4]: 9.26 | IC50 [5]: 0.34 nM | pIC50 [7]: < 4.34 | half-life [6]: 4.2 h | pIC50 [8]: < 5.52

O=C(O)CC1(CS[C@H](CCc2ccccc2C(F)(F)F)c2cccc(/C=C/c3ccc4sc(Cl)c(Cl)c4n3)c2)CC1
clearance [2]: 0.4 mL/min/kg | bioavailability [3]: 1% | half-life [6]: 6.1 h

O=C(O)CC1(CS[C@H](CCc2ccc(F)cc2)c2cccc(/C=C/c3ccc4sc(Cl)c(Cl)c4n3)c2)CC1
IC50 [1]: 1.09 nM | clearance [2]: 1.8 mL/min/kg | bioavailability [3]: 5% | pIC50 [4]: 8.67 | IC50 [5]: 0.65 nM
